According to the supplement of paper PMC5844555:

Experiments:
Assay in all cases: 3' UTR reporter interaction score (median-centred robust z-score of log2 firefly/Renilla activity); higher = less repression of the 3' UTR reporter
Conditions in all cases: HEK293T; 48 h
MYB = system: MYB
In short: (§1)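 HEK293T cells (10,000/well, 96-well plates) were co-transfected using DharmaFECT Duo with 100 ng firefly luc2P reporter carrying the gene's 3' UTR, 20 ng Renilla pRL-TK control and 2.5 pmol miRNA mimic. Dual-luciferase activities were read 48 h post-transfection. The interaction score is the log-transformed firefly/Renilla ratio as a per-plate robust z-score (median, median absolute deviation), median-centred per miRNA and averaged over at least two independent screens; more negative indicates interaction.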

BRCA2 = system: BRCA2
In short: as §1

PHF6 = system: PHF6
In short: as §1

MYC = system: MYC
In short: as §1

MYT1L = system: MYT1L
In short: as §1

NOTCH1 = system: NOTCH1
In short: as §1

HRAS = system: HRAS
In short: as §1

PHOX2B = system: PHOX2B
In short: as §1

FBXW7 = system: FBXW7
In short: as §1

MYCN = system: MYCN
In short: as §1

ZEB2 = system: ZEB2
In short: as §1

EZH2 = system: EZH2
In short: as §1

RB1 = system: RB1
In short: as §1

TP53 = system: TP53
In short: as §1

Sequence	3' UTR reporter interaction score (MYB)	3' UTR reporter interaction score (BRCA2)	3' UTR reporter interaction score (PHF6)	3' UTR reporter interaction score (MYC)	3' UTR reporter interaction score (MYT1L)	3' UTR reporter interaction score (NOTCH1)	3' UTR reporter interaction score (HRAS)	3' UTR reporter interaction score (PHOX2B)	3' UTR reporter interaction score (FBXW7)	3' UTR reporter interaction score (MYCN)	3' UTR reporter interaction score (ZEB2)	3' UTR reporter interaction score (EZH2)	3' UTR reporter interaction score (RB1)	3' UTR reporter interaction score (TP53)
GUGCCUACUGAGCUGAUAUCAGU	0.61	0.244	-1.31	0.239	-1.1	-1.95	-0.972	1.18	0.26	0.559	-0.6	0.242	0.454	0.396
GUCCCUCUCCAAAUGUGUCUUG	1.83	0.364	-1.08	1.7	-0.216	-0.392	0.01	-0.224	-1.89	1.77	-3.03	0.871	-0.267	0.415
GUUUGCACGGGUGGGCCUUGUCU	-0.536	0.0623	0.29	-0.328	2.21	0.297	-1.1	0.0301	-0.619	1.09	-1.23	-0.233	-0.0813	-0.225
UAUGGCUUUUUAUUCCUAUGUGA	-0.0826	0.03	0.879	-0.0719	0.172	-0.625	-0.268	-1.06	0.0824	0.776	0.676	0.742	-0.178	0.14
UGUCAGUUUGUCAAAUACCCC	0.7	-0.428	-0.327	0.119	0.484	0.533	0.221	1.35	-3.7	0.673	1.58	-0.235	0.229	-1.17
UAACAGUCUCCAGUCACGGCC	-1.89	-0.504	-0.767	-0.0995	1.02	-0.389	-0.229	-0.145	0.973	0.167	1.77	0.108	-2.21	-0.811
UUUCCAUAGGUGAUGAGUCAC	1.55	-0.419	-0.367	0.823	-0.218	-0.326	0.654	-0.505	-0.836	1.24	-0.252	-3.48	0.93	-0.699
AAGCAGCUGCCUCUGAGGC	-1.27	-0.823	0.632	1.09	-4.53	-0.304	-0.819	0.758	-2.92	0.924	1.09	-1.03	0.293	0.187
UUCUCCAAAAGAAAGCACUUUCUG	-0.561	0.931	1.85	-0.642	2.07	-0.152	0.348	1.93	-0.49	-0.288	1.36	0.815	1.42	-0.447
CAAAAAUCUCAAUUACUUUUGC	-1.38	-0.215	-0.915	0.393	0.42	-0.966	-0.151	0.42	0.748	0.123	-0.266	0.0697	-0.319	0.17
UGUGACUGGUUGACCAGAGGG	-1.86	0.687	0.602	0.219	-0.108	0.462	-0.321	0.929	-1.25	-1.12	1.2	0.91	-1.22	0.803
UAUGUGCCUUUGGACUACAUCG	0.663	-1.13	0.707	0.403	-1.09	0.00167	-0.0556	-3.33	0.444	0	0.0793	-0.568	0.319	-0.404
AAAAGCUGGGUUGAGAGGGCGAA	1.19	0.138	0.0922	0.0971	-0.165	0.666	-0.583	-1.64	0.0632	0.121	1.15	-2.65	0.499	-0.479
CAAAGAAUUCUCCUUUUGGGCUU	0.952	-0.174	-0.267	-0.381	0.219	1.33	0.0982	-0.413	-0.499	0.453	-0.283	-0.313	1.54	-0.294
UACAGUACUGUGAUAACUGAAG	0.694	0.0293	-0.261	0.128	0.686	-1.33	0.843	0.00398	-3.92	-3.49	-0.268	-3.4	0.982	-0.59
AACCCGUAGAUCCGAUCUUGUG	1.14	0.969	-0.973	1.06	-0.114	0.552	0.465	-3.27	-0.496	0.392	-0.0662	-0.241	-0.24	-0.247
UCCUGUACUGAGCUGCCCCGAG	-1.33	-2.39	-0.91	-0.142	-1.49	-0.221	0.706	1.42	0.155	0.364	-2.27	0.519	-2.81	-0.164
GACACGGGCGACAGCUGCGGCCC	0.262	-0.257	1.16	-0.271	-0.281	-0.641	0.13	-0.471	-0.302	-0.202	0.917	-0.294	1.37	0.243
GUUCAAAUCCAGAUCUAUAAC	-0.548	0.0735	-0.553	-0.205	-0.972	-0.33	-0.14	1.14	1.03	-0.012	0.383	-0.256	-0.538	0.149
